This series is described as follows: in vitro. The settings on record: human, hek293t cells.
For orientation: viability means a read-out of living cells in per cent, often relative to untreated cells. As to `CC(Cl)C(=O)NCCc1csc(N2CCCC2)n1` (centres unmarked) [7-O08, 2-chloro-N-{2-[2-(pyrrolidin-1-yl)-1,3-thiazol-4-yl]ethyl}propanamide], the viability at 48 h, 25 µM worked out at 95.9%.

For `Cc1cc(C(=O)CCl)c(C)n1-c1ccc(OC(F)F)c(Cl)c1` [10-K04, 2-chloro-1-{1-[3-chloro-4-(difluoromethoxy)phenyl]-2,5-dimethyl-1H-pyrrol-3-yl}ethan-1-one], the viability at 48 h, 25 µM was found to be 0.0199%.

As to `COCCNC(=O)C(C#N)=Cc1c(F)cccc1Cl` [8-O21, 3-(2-chloro-6-fluorophenyl)-2-cyano-N-(2-methoxyethyl)prop-2-enamide], the viability at 48 h, 25 µM was found to be 94.2%.

As for `COc1ccccc1NC(=O)c1ccc(NC(=O)CCl)cc1` [4-O17, 4-(2-chloroacetamido)-N-(2-methoxyphenyl)benzamide], the viability at 48 h, 25 µM is -0.113%.

`CC(Cl)C(=O)N1CC(c2cc(CO)on2)C1` (centres unmarked) [7-M10, 2-chloro-1-{3-[5-(hydroxymethyl)-1,2-oxazol-3-yl]azetidin-1-yl}propan-1-one]: the viability at 48 h, 25 µM was 84.9%.

With `CC(c1cccc([N+](=O)[O-])c1)N(C)C(=O)CCl` (centres unmarked) [6-G06, 2-chloro-N-methyl-N-[1-(3-nitrophenyl)ethyl]acetamide], the viability at 48 h, 25 µM is 1.19%.

In the case of `CN(C)c1ccc(C=C(C#N)C(=O)Nc2ccc3c(c2)OCCO3)cc1` [9-B21, 2-cyano-N-(2,3-dihydro-1,4-benzodioxin-6-yl)-3-[4-(dimethylamino)phenyl]prop-2-enamide], the viability at 48 h, 25 µM came to 110%.

Regarding `CCCCNC(=O)C(C#N)=Cc1ccc(C)s1` [9-J06, N-butyl-2-cyano-3-(5-methylthiophen-2-yl)prop-2-enamide], the viability at 48 h, 25 µM was determined as 94.4%.

For the compound `CC(C#N)CSc1ccccc1NC(=O)CCl` (centres unmarked) [6-K16, 2-chloro-N-{2-[(2-cyano-2-methylethyl)sulfanyl]phenyl}acetamide], the viability at 48 h, 25 µM is 1.3%.

Regarding `C=CC(=O)NCC1=NOCC1` [3-G16, N-[(4,5-dihydro-1,2-oxazol-3-yl)methyl]prop-2-enamide], the viability at 48 h, 25 µM was 104%.

With `CC(Cl)C(=O)NCc1nc(N(C)C)no1` (centres unmarked) [7-A04, 2-chloro-N-{[3-(dimethylamino)-1,2,4-oxadiazol-5-yl]methyl}propanamide], the viability at 48 h, 25 µM was 92.2%.

As to `O=C(CCl)c1sccc1Cl` [10-K11, 2-chloro-1-(3-chlorothiophen-2-yl)ethan-1-one], the viability at 48 h, 25 µM worked out at 17%.

With `C=CC(=O)N(Cc1ccc(F)cn1)c1cnn(C2CCCC2)c1C` [1-D11, N-(1-cyclopentyl-5-methyl-1H-pyrazol-4-yl)-N-[(5-fluoropyridin-2-yl)methyl]prop-2-enamide], the viability at 48 h, 25 µM is 97.3%.

Regarding `CCN(CC)S(=O)(=O)c1ccc(NC(=O)CCl)cc1` [4-K07, 2-chloro-N-[4-(diethylsulfamoyl)phenyl]acetamide], the viability at 48 h, 25 µM is 0.364%.

For the compound `CCc1ccc(Cc2cnc(NC(=O)CCl)s2)cc1` [4-F19, 2-chloro-N-{5-[(4-ethylphenyl)methyl]-1,3-thiazol-2-yl}acetamide], the viability at 48 h, 25 µM is 0.0785%.

On to `COc1ccc(NC(=O)C(C#N)=CC=Cc2ccccc2)cc1Cl` [8-M18, N-(3-chloro-4-methoxyphenyl)-2-cyano-5-phenylpenta-2,4-dienamide], for which the viability at 48 h, 25 µM stood at 75.7%.

In the case of `C=CC(=O)NC1CCS(=O)(=O)C(C)C1` (centres unmarked) [3-A10, N-(2-methyl-1,1-dioxo-1lambda6-thian-4-yl)prop-2-enamide], the viability at 48 h, 25 µM came to 68.8%.

Regarding `C=CC(=O)N(Cc1ccccc1)Cc1ccccc1` [1-P04, N,N-dibenzylprop-2-enamide], the viability at 48 h, 25 µM came out at 60.4%.

Take `CNC(=O)Cn1ccc2ccc(NC(=O)C(C#N)=Cc3ccco3)cc21` [9-F18, 2-cyano-3-(furan-2-yl)-N-{1-[(methylcarbamoyl)methyl]-1H-indol-6-yl}prop-2-enamide]: the viability at 48 h, 25 µM came out at 109%.

In the case of `CC1CC1c1ccc(C=C(C#N)C(=O)Nc2ccc(C(=O)O)cc2)o1` (centres unmarked) [9-G16, 4-{2-cyano-3-[5-(2-methylcyclopropyl)furan-2-yl]prop-2-enamido}benzoic acid], the viability at 48 h, 25 µM was 133%.

Consider `COC(=O)c1cccc(C(=O)CCl)c1` [10-I11, methyl 3-(2-chloroacetyl)benzoate], for which the viability at 48 h, 25 µM stood at 1.87%.

As to `CC(Cl)C(=O)N1CCN(C(=O)c2cccc(OC(F)F)c2)CC1` (centres unmarked) [5-F17, 2-chloro-1-{4-[3-(difluoromethoxy)benzoyl]piperazin-1-yl}propan-1-one], the viability at 48 h, 25 µM amounted to 106%.

Regarding `C=CC(=O)NCc1noc(-c2cccs2)n1` [3-H15, N-{[5-(thiophen-2-yl)-1,2,4-oxadiazol-3-yl]methyl}prop-2-enamide], the viability at 48 h, 25 µM amounted to 93.9%.

For the compound `CC(C1CC1)N(Cc1ccccc1)C(=O)CCl` (centres unmarked) [5-F09, N-benzyl-2-chloro-N-(1-cyclopropylethyl)acetamide], the viability at 48 h, 25 µM stood at 0.956%.

As to `O=C(CCl)NC(=O)Nc1ccccc1` [4-I17, 3-(2-chloroacetyl)-1-phenylurea], the viability at 48 h, 25 µM amounted to 64%.

As to `N#CC(=Cc1ccc([N+](=O)[O-])c(Cl)c1)C(=O)NCc1ccccc1` [8-D08, N-benzyl-3-(3-chloro-4-nitrophenyl)-2-cyanoprop-2-enamide], the viability at 48 h, 25 µM worked out at 1.37%.

Consider `N#CC(=Cc1cccc(Oc2ccccc2)c1)C(=O)N1CCCC1` [9-F06, 3-(3-phenoxyphenyl)-2-(pyrrolidine-1-carbonyl)prop-2-enenitrile], for which the viability at 48 h, 25 µM was found to be 46.3%.

Take `CCCCNC(=O)C(C#N)=Cc1cc(C)ccc1C` [9-C11, N-butyl-2-cyano-3-(2,5-dimethylphenyl)prop-2-enamide]: the viability at 48 h, 25 µM is 93.1%.

Consider `COc1c(Cl)cc(Cl)cc1C=C(C#N)C(N)=O` [9-M13, 2-cyano-3-(3,5-dichloro-2-methoxyphenyl)prop-2-enamide], for which the viability at 48 h, 25 µM came to 137%.

Take `CNC(=O)C(F)(F)C1(O)CCN(C(=O)CCl)CC1` [5-F03, 2-[1-(2-chloroacetyl)-4-hydroxypiperidin-4-yl]-2,2-difluoro-N-methylacetamide]: the viability at 48 h, 25 µM worked out at 1.94%.

Consider `C=CC(=O)NC(Cn1ccccc1=O)c1ccccc1` (centres unmarked) [2-B21, N-[2-(2-oxo-1,2-dihydropyridin-1-yl)-1-phenylethyl]prop-2-enamide], for which the viability at 48 h, 25 µM turned out to be 72.3%.

Consider `CC(Cl)C(=O)NC(c1cc(Cl)ccc1Cl)C1CCOC1` (centres unmarked) [7-K21, 2-chloro-N-[(2,5-dichlorophenyl)(oxolan-3-yl)methyl]propanamide], for which the viability at 48 h, 25 µM worked out at 87.9%.

Consider `C=CC(=O)Nc1cccc(S(=O)(=O)C2CCOCC2)c1` [3-M08, N-[3-(oxane-4-sulfonyl)phenyl]prop-2-enamide], for which the viability at 48 h, 25 µM came to 96.8%.

For the compound `C[C@H]1CN(C(=O)CCl)Cc2cccn21` [5-B03, 2-chloro-1-[(4S)-4-methyl-1H,2H,3H,4H-pyrrolo[1,2-a]pyrazin-2-yl]ethan-1-one], the viability at 48 h, 25 µM was determined as 0.688%.

For the compound `CSc1cccc(NC(=O)CCl)c1` [4-H10, 2-chloro-N-[3-(methylsulfanyl)phenyl]acetamide], the viability at 48 h, 25 µM worked out at 1.13%.

Turning to `C=CC(=O)N1CCCC2(CCCOC2)C1` (centres unmarked) [3-E11, 1-{2-oxa-8-azaspiro[5.5]undecan-8-yl}prop-2-en-1-one], the viability at 48 h, 25 µM stood at 46.3%.

Consider `COc1ccc(C2CCCN2C(=O)CCl)c(OC)c1` (centres unmarked) [4-P22, 2-chloro-1-[2-(2,4-dimethoxyphenyl)pyrrolidin-1-yl]ethan-1-one], for which the viability at 48 h, 25 µM was 0.348%.

As to `C=CC(=O)N(C1CCCC1)C(C)c1nnc2ccccn12` (centres unmarked) [2-B07, N-cyclopentyl-N-(1-{[1,2,4]triazolo[4,3-a]pyridin-3-yl}ethyl)prop-2-enamide], the viability at 48 h, 25 µM is 51.9%.

Take `C=CC(=O)Nc1c(C)cccc1SCC(=O)N(C)C` [1-E13, N-(2-{[(dimethylcarbamoyl)methyl]sulfanyl}-6-methylphenyl)prop-2-enamide]: the viability at 48 h, 25 µM came out at 78.8%.

Take `Cn1c(N)c(C(=O)CCl)c(=O)[nH]c1=O` [10-I16, 6-amino-5-(2-chloroacetyl)-1-methyl-1,2,3,4-tetrahydropyrimidine-2,4-dione]: the viability at 48 h, 25 µM was found to be 104%.

Consider `Cc1nnsc1CNC(=O)C(C)Cl` (centres unmarked) [7-M07, 2-chloro-N-[(4-methyl-1,2,3-thiadiazol-5-yl)methyl]propanamide], for which the viability at 48 h, 25 µM came out at 89%.

Regarding `N#CC(=CNc1ccc(F)cc1)C(=O)NCc1ccccc1` [8-E20, N-benzyl-2-cyano-3-[(4-fluorophenyl)amino]prop-2-enamide], the viability at 48 h, 25 µM stood at 98.3%.

Take `Cc1ccnc(-c2n[nH]c(C(C)NC(=O)C(C)Cl)n2)c1` (centres unmarked) [7-I10, 2-chloro-N-{1-[3-(4-methylpyridin-2-yl)-1H-1,2,4-triazol-5-yl]ethyl}propanamide]: the viability at 48 h, 25 µM was 71.1%.

With `CS(=O)(=O)N1CCCc2cc(C(=O)CCl)ccc21` [10-H19, 2-chloro-1-(1-methanesulfonyl-1,2,3,4-tetrahydroquinolin-6-yl)ethan-1-one], the viability at 48 h, 25 µM stood at 72%.

Consider `CC(Cl)C(=O)Nc1sccc1C#N` (centres unmarked) [5-E21, 2-chloro-N-(3-cyanothiophen-2-yl)propanamide], for which the viability at 48 h, 25 µM is 59%.

Regarding `C=CC(=O)N1CCC(C(=O)NCc2ncnn2CC)CC1` [3-P03, N-[(1-ethyl-1H-1,2,4-triazol-5-yl)methyl]-1-(prop-2-enoyl)piperidine-4-carboxamide], the viability at 48 h, 25 µM was found to be 71.2%.

As to `CN(Cc1ccc(-c2ccc(Cl)cc2)o1)C(=O)CCl` [5-I13, 2-chloro-N-{[5-(4-chlorophenyl)furan-2-yl]methyl}-N-methylacetamide], the viability at 48 h, 25 µM turned out to be 16.8%.

On to `COc1ccc(NC(=O)c2ccccc2NC(=O)CCl)cc1` [4-L05, 2-(2-chloroacetamido)-N-(4-methoxyphenyl)benzamide], for which the viability at 48 h, 25 µM was 0.046%.

In the case of `Cc1ccc(C=C(C#N)C(=O)Nc2ccccc2C(=O)O)s1` [9-K08, 2-[2-cyano-3-(5-methylthiophen-2-yl)prop-2-enamido]benzoic acid], the viability at 48 h, 25 µM is 104%.

As to `C=CC(=O)N(C)CC(=O)NC1CCC(N2CCCCC2=O)CC1` (centres unmarked) [3-A06, N-methyl-N-({[4-(2-oxopiperidin-1-yl)cyclohexyl]carbamoyl}methyl)prop-2-enamide], the viability at 48 h, 25 µM was determined as 62.1%.

For the origin of these results see PMC11995724, “Antibiotic target discovery by integrated phenotypic and activity-based profiling of electrophilic fragments” (Cell chemical biology, 2025).
